In this assay the test system is Cell-based prion protein 5' UTR reporter, plate reader. As to the kind of experiment: prion protein 5' UTR mRNA inhibitors – cell-based, plate reader, cherry-picked samples, dose response (AID 504539).
Take `Cc1nn(-c2ccccc2Cl)c(Cl)c1/C=N/Nc1cccc(C(=O)O)c1`: the AC50 is 576 nM. As to `COC(=O)c1nn(-c2ccc3c(c2)CCN3C(C)=O)cc1O`, the AC50 was 300 nM. As for `OCCCNc1cc(-c2ccnc(Nc3cccc(Cl)c3)n2)ccn1`, the AC50 was 181 nM.

Take `CC(=O)c1ccc(Oc2cc(C)nc(-n3nc(C)cc3C)n2)cc1`: the AC50 is 1250 nM.

Regarding `COC(=O)c1c(NC(=O)c2ccc([N+](=O)[O-])o2)sc2c1CCN(C(C)C)C2`, the AC50 was 2860 nM. Regarding `COc1cc(C(=O)N2CCN(c3cccc(C)c3C)CC2)cc(OC)c1OC`, the AC50 was 1410 nM. The same measure for `COC(=O)c1ccccc1NC(=O)Cn1c(-c2nonc2N)nc2ccccc21`: 605 nM. The same measure for `COc1cc(C2c3[nH]c4ccccc4c3CC3COC(=O)N32)cc(OC)c1O` (stereo not given): 270 nM; for `Cc1cc(C(=O)CN2C(=O)c3ccccc3S2(=O)=O)c(C)n1C(C)C`: 2160 nM.

For the compound `COc1ccccc1-c1nnc2sc(-c3cc4ccccc4o3)nn12`, the AC50 was 4300 nM. On to `CC(C)(C)c1ccc(/C=N/Nc2cccc(C(=O)O)c2)cc1`, for which the AC50 is 2110 nM. The same measure for `C=Cc1cc(OC)c2c(c1)c(=O)oc1c2cc(OC)c2c(O)ccc(C3OC(C)C(O)C(C)(O)C3O)c21` (stereo not given): 211 nM; for `CN(NC(=O)c1ccccc1F)c1nc(C(F)(F)F)nc2ccccc12`: 1320 nM.

In the case of `O=C(O)c1ccc(N/N=C/c2ccc3nccnc3c2)cc1`, the AC50 is 560 nM.

In the case of `Nc1ncnc2c(C3OC(CO)C(O)C3O)scc12` (stereo not given), the AC50 is 2450 nM. Under `O=C(Nc1ccc(N2CCOCC2)cc1)c1cnsn1` stands 486 nM; under `COC(=O)Cc1[nH]n(-c2nc3ccccc3s2)c(=O)c1C(C)=Nc1ccc(C)cc1`, 401 nM; under `Clc1ccccc1/C=C/c1nc(-c2ccccn2)no1`, 540 nM.

For `Cc1cc(/C=C2\SC(=S)N(C)C2=O)c(C)n1-c1ccc(O)cc1`, the AC50 was 130 nM. The same measure for `CC(=O)OC1C(=O)OCC23CCC4(C)OC4C2OC2CC(OC(=O)C=CC=CC(=O)OCCC1C)C3(C)C21CO1` (stereo not given): less than 38 nM; for `COc1ccc2c(c1)sc1nc(-c3ccccc3)cn12`: 556 nM.

As to `COc1cccc2c1C(=O)c1c(O)c3c(c(O)c1C2=O)CC(O)(C(=O)CO)CC3OC1CC(N(C)C)C(O)C(C)O1` (stereo not given), the AC50 was 130 nM. For the compound `COCCn1c(C)cc(C(=O)CSc2nnc(C)s2)c1C`, the AC50 is 696 nM. Take `C=C1C(=O)O[C@@H]2C[C@@H](C)[C@@H]3C=CC(=O)[C@@]3(C)[C@@H](O)[C@H]12`: the AC50 is 1580 nM. The same measure for `CN(C)c1ccc2c(c1)OC(N)=C(C#N)C2c1cccc(F)c1` (stereo not given): 179 nM; for `CCOc1ccc(OCc2cccc(C(=O)N3CCOCC3)c2)cc1`: 573 nM. Under `O=C1NC2C(O)C(O)C(O)C(O)C2c2cc3c(c(O)c21)OCO3` (stereo not given) stands 1480 nM; under `N#CC1=C(N)OC2=C(CCc3ccccc32)C1c1ccccc1` (stereo not given), 945 nM; under `CCC(C)C1NC(=O)C(NC(=O)C(CC(C)C)N(C)C(=O)C2CCCN2C(=O)C(C)O)C(C)OC(=O)C(Cc2ccc(OC)cc2)N(C)C(=O)C2CCCN2C(=O)C(CC(C)C)NC(=O)[C@H](C)C(=O)[C@H](C(C)C)OC(=O)CC1O` (stereo not given in full), 84 nM.

`COc1ccccc1-c1nnc2n1N=C(c1ccc(O)c(O)c1)CS2`: the AC50 is 206 nM.

Turning to `CCn1c(C)nc2cc(-c3nc4n(n3)Cc3ccccc3-4)ccc21`, the AC50 was 44 nM. Under `O=[N+]([O-])c1nn(-c2ccc3c(c2)OCCO3)n(O)c1=Nc1ccccc1` stands 180 nM; under `Cc1ccc(-c2nnc(SCC(=O)Nc3ccccc3F)o2)cc1`, 284 nM; under `CC(=Nc1ccccc1)C1=C(O)C(Cc2ccc(O)cc2)NC1=O` (stereo not given), 379 nM.

In the case of `COc1ccc(C(=O)Nc2nc3ccccc3s2)c(OC)c1`, the AC50 was less than 38 nM. Under `CCOc1ccccc1C1C2=C(COC2=O)Nc2cc3c(cc21)OCO3` (stereo not given) stands 1050 nM; under `CCC1(OC(=O)CN)C(=O)OCc2c1cc1n(c2=O)Cc2cc3ccccc3nc2-1` (stereo not given), 987 nM; under `Cc1c(/C=N\NC(=O)C2COc3ccccc3O2)c2ccccc2n1C` (stereo not given), 3040 nM. Under `O=C(/C=C\Nc1ccc2c(c1)OCO2)c1ccccn1` stands 173 nM. The same measure for `COc1cc(C(=O)N2CCN(c3ccccc3)CC2)c2ccccc2n1`: 574 nM; for `COc1cc(SC)ccc1C(=O)Nc1nc(C)cs1`: 216 nM; for `COc1ccc(C2=Nn3c(nnc3-c3ccccc3OC)SC2)cc1OC1CCOC1` (stereo not given): 3560 nM. `Cc1ccc(N2C(=O)c3cccc4c(N)ccc(c34)C2=O)c2cccnc12`: the AC50 is 134 nM. Under `Fc1ccc(-c2nnc(NC3=NCCCCC3)o2)cc1` stands 372 nM; under `Cc1ccc(C(=O)O/N=C(\N)c2ccccn2)c(C)c1`, 46 nM; under `Cc1nc2cc(-c3ccccc3)sc2c(=O)n1N`, 284 nM. Under `Cn1ncnc2c(=O)n(C)c(=O)nc1-2` stands 135 nM; under `CC1CC(C)(O)CC(C(O)CC2CC(=O)NC(=O)C2)C1=O` (stereo not given), 493 nM; under `C=CCn1c(C)cc(C2=NNC(=NC(C)(C)C)SC2)c1C`, 714 nM. Under `CNC(=O)Oc1ccc(-c2cn3cc(C)ccc3n2)cc1` stands 556 nM. Consider `COc1ccc(OC)c(NS(=O)(=O)c2ccc(N3CCCC3=O)cc2)c1`, for which the AC50 was 880 nM. Under `COC1C(O)C(C)OC(OC2CCC3(C)C(CCC4C3C(O)CC3(C)C(C5=CC(=O)OC5)CCC43O)C2)C1O` (stereo not given) stands 150 nM; under `Nc1ccc2oc(-c3cccc4ccccc34)nc2c1`, 826 nM. In the case of `O=C1c2cccc3cc([N+](=O)[O-])cc(c23)C(=O)N1CCN1CCCC1`, the AC50 is 521 nM. Under `C=CCn1c(SCc2c(C)noc2C)nc2ccccc2c1=O` stands 851 nM; under `O=c1cc(-c2ccc(O)cc2)oc2ccc3ccccc3c12`, 629 nM; under `S=C(Nc1ccccc1)Nc1ccc(OCc2ccc(Cl)cc2Cl)cc1`, 355 nM.

As to `COc1ccc(OC)c(-c2nnc3n2N=C(c2ccc(OC)c(OC4CCOC4)c2)CS3)c1` (stereo not given), the AC50 was 554 nM. For the compound `COc1ccc(C(=O)c2cc([N+](=O)[O-])ccc2N2CCOCC2)cc1`, the AC50 was 397 nM. The same measure for `COc1cccc(/C=N/Nc2ccc(C(=O)O)cc2)c1O`: 222 nM.

As for `Cc1cc(C)c(C#N)c(SCc2nnc(-c3ccccc3)o2)n1`, the AC50 was 1990 nM. Under `COc1cc(C2c3cc4c(cc3CC3COC(=O)N32)OCO4)cc(OC)c1OC` (stereo not given) stands 861 nM; under `CN1C2CCC1/C(=C/c1ccccn1)C(=O)/C2=C\c1ccccn1`, 773 nM; under `O=C(Nc1ccc(-c2nc3cccnc3s2)cc1)C1CCCO1` (stereo not given), 630 nM. The same measure for `c1ccc(-c2noc(-c3ccc4c(c3)OCO4)n2)nc1`: 140 nM. The same measure for `CC(C)(O)/C=C/C(=O)[C@](C)(O)C1[C@H](O)C[C@@]2(C)C3CC=C4C(C[C@H](O)[C@@H](O)C4(C)C)[C@]3(C)C(=O)C[C@]12C` (stereo not given in full): 900 nM; for `O=C(/C=C/c1ccccc1)Nc1cccc(C(=O)O)c1`: 392 nM; for `Cc1cc(NC(=O)CSc2nc(-c3ccco3)cc(C(F)(F)F)n2)no1`: 560 nM.

Take `O=c1oc2ccccc2cc1-c1cn(-c2ccccc2)c(=S)[nH]1`: the AC50 was 776 nM.

For `COc1cc(OC)cc(-c2cc3nc(C)c(CCC(=O)O)c(C)n3n2)c1`, the AC50 is 1610 nM.

One may read the AC50 as the midpoint of the concentration-response curve, whichever way the signal moves.

Values taken from PubChem BioAssay AID504539 (Broad Institute, 2011).
